Laboratory results reported in PMC11237586, “4′-Fluorouridine inhibits alphavirus replication and infection in vitro and in vivo” (mBio, 2024).

Assays:
[1] = target: CHIKV nsP4 (RdRp) with SFV P123, mixed trans-replicase (Chikungunya virus strain S27-African prototype, UniProt Q8JUX6); test: cell-based
[2] = target: SFV nsP4 (RdRp) with SFV P123, trans-replicase (Semliki Forest virus, UniProt P08411); test: trans-replicase Gaussia luciferase reporter assay in transfected U-2 OS cells; format: cell-based
Chain of SFV nsP4 (RdRp) with SFV P123, trans-replicase (P08411 1-1818): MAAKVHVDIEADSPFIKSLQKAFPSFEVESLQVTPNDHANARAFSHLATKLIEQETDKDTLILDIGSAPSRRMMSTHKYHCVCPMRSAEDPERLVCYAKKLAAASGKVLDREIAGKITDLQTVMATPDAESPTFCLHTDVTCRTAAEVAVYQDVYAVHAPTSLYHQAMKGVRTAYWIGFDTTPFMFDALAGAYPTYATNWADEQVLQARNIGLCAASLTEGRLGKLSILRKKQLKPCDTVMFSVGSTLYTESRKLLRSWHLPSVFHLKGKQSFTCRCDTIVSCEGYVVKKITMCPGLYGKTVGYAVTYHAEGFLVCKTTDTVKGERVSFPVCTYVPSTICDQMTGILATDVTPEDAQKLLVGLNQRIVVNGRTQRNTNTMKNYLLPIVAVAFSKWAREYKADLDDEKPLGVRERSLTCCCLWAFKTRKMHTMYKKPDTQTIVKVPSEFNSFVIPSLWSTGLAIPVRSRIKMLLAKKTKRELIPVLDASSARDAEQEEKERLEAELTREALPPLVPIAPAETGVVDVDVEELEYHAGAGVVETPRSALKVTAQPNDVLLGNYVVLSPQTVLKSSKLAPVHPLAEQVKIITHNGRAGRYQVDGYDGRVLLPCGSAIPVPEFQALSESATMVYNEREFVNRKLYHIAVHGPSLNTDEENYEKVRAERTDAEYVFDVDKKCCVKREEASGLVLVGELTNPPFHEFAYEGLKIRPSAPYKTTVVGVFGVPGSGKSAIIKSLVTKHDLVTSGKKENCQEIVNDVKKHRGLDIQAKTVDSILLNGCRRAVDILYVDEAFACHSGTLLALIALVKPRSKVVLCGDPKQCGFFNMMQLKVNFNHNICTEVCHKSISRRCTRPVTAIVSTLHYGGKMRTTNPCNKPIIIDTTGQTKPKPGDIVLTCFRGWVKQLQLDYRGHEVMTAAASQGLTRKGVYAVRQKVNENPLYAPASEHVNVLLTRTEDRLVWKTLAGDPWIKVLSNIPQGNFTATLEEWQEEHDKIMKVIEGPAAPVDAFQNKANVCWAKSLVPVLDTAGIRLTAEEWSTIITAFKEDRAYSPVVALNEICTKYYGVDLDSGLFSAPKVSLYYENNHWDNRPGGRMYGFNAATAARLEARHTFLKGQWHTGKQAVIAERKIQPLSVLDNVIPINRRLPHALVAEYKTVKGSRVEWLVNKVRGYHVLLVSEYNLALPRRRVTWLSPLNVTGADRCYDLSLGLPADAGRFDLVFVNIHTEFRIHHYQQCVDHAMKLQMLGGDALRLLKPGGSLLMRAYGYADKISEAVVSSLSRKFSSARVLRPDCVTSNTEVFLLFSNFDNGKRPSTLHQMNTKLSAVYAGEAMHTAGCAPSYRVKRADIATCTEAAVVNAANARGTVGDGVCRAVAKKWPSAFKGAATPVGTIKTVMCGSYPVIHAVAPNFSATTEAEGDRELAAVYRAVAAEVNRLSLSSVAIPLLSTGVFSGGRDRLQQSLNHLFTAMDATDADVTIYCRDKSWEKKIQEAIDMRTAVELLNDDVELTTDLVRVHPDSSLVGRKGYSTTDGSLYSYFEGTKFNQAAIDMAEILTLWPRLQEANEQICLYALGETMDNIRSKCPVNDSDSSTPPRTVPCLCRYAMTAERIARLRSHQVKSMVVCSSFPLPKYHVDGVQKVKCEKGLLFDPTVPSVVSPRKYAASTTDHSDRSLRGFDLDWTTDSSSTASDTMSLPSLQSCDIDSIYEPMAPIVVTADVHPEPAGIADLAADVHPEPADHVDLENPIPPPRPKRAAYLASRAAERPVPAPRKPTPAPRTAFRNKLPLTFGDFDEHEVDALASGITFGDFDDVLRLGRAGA
Chain of SFV nsP4 (RdRp) with SFV P123, trans-replicase (P08411 1819-2431): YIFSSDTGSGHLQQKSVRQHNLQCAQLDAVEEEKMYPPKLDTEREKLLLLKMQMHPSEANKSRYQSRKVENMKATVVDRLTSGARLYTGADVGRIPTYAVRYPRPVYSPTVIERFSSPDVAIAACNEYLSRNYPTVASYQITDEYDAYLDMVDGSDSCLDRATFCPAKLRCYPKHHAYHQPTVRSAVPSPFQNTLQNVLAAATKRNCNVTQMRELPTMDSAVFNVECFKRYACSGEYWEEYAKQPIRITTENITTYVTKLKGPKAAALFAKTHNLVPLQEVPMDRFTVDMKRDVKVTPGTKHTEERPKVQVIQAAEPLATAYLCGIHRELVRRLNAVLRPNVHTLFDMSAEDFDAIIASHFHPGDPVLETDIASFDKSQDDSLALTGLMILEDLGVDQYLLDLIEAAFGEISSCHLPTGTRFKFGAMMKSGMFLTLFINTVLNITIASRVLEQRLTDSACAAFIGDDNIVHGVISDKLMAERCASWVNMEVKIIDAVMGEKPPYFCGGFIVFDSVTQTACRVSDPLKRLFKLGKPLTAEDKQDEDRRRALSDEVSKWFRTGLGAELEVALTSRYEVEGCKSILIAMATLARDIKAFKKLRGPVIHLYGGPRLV

Chain of CHIKV nsP4 (RdRp) with SFV P123, mixed trans-replicase (Q8JUX6 1864-2474): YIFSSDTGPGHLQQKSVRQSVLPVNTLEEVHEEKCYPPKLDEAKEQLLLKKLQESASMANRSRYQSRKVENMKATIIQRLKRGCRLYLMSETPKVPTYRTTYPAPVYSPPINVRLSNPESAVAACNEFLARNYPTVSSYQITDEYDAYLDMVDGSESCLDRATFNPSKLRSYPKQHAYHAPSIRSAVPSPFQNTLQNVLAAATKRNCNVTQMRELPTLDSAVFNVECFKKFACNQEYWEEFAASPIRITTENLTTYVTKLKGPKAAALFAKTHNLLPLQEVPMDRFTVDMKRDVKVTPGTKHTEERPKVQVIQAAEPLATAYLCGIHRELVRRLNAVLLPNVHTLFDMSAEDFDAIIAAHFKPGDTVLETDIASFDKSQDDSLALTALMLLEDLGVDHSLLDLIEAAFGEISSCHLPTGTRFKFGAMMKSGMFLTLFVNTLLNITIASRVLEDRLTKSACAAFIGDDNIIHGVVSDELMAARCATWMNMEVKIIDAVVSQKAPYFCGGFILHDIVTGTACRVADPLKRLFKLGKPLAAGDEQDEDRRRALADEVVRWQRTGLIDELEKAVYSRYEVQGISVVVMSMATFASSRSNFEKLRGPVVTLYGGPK
Chain of CHIKV nsP4 (RdRp) with SFV P123, mixed trans-replicase (P08411 1-1818, further chain): as the sequence (P08411 1-1818) above

In the case of `O=c1ccn([C@@H]2O[C@](F)(CO)[C@@H](O)[C@H]2O)c(=O)[nH]1` [4′-fluorouridine], the EC50 [1] is reported as 640 nM and the EC50 [2] is reported as 2100 nM.
